In PubChem BioAssay AID1963443 (Molecular Pharmacology Branch, DTP, NCI, 2024):

System: MDA-MB-231 complex spheroids, growth inhibition
Test: Anticancer human tumor MDA-MB-231 cell line growth inhibition [Asc];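 also: spheroids exposed to compounds for 7 days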
Conditions: for IC50: curve of first compound; for viability, T/C: stronger effect = lower value
Protocol: Multicellular complex tumor spheroid response to apoptosis pathway targeting inhibitors Alrizomadlin, Pelcitoclax, and Dasminapant in combination with a variety of drugs and investigational agents in selected tumor cell lines
The MDM2 inhibitor alrizomadlin, the Bcl-2/Bcl-xL inhibitor pelcitoclax, and the IAPs inhibitor dasminapant were evaluated both individually and in combination with standard of care and investigational anticancer small molecules within a complex spheroid model of solid tumors. . Complex spheroids include a stromal component modeled by human endothelial cells (HUVEC) and fibroblasts modeled by human mesenchymal stem cells (MSCs). The concentration ranges selected for each drug and investigational agent were based upon clinically achievable concentrations if the clinical Cmax of the agent was known.
Compounds. The drugs and investigational agents: alrizomadlin (APG-115; NSC831270), pelcitoclax (APG-1252; NSC835773), dasminapant (APG-1387;NSC834197), TAK-243 (NSC785004), copanlisib (NSC809693), olaparib (NSC753686), talazoparib (NSC767125), cobimetinib (NSC 768068), eltanexor (KPT-8602, NSC 794443), abemaciclib (NSC 768073), sotorasib (NSC818433), adagrasib (NSC 831453), MRTX-1133 (NSC 836407), Iadademestat (ORY1001, NSC 806812), and RMC-4630 (NSC839698), were obtained from the NCI Developmental Therapeutics Program Chemical Repository. The FDA-approved anticancer drug set is available from the Developmental Therapeutics Program at https://dtp.cancer.gov/organization/dscb/obtaining/available plates.htm. […] The stock solutions were prepared in dimethyl sulfoxide (DMSO, Sigma-Aldrich, St. Louis, MO, cat. D2650) at 800-fold the tested concentration and stored at -70 degrees C prior to their use. All drugs and investigational agents were tested over a range starting from a high concentration at or near the clinical Cmax and decreasing in half-log increments. If the clinical Cmax for an agent had not been determined, the highest concentration tested was 10 microM.
The patient-derived cancer (PDC) cell lines include five colon adenocarcinomas: 186277-243-T-J2-PDC, 616215-338-R-J1-PDC, 439559-082-T-J2-PDC, 463943-066-T-J2-PDC, and 519858-162-T-J1-PDC; three pancreatic carcinomas: 323965-272-R-J2-PDC, 521955-158-R6-J3-PDC, and 521955-158-R2-J5-PDC; two uterine sarcomas: 327498-152-R-J2-PDC and 993429-296-R-J1-PDC; two rhabdomyosarcomas: 755483-174-R-J1-PDC and 772245-204-R-J1-PDC; two soft tissue sarcomas: 126254-015-R-J1-PDC and 494315-158-R-J1-PDC; two malignant fibrous histiocytomas: 317291-083-R-J1-PDC and 596521-263-R-J1-PDC; two breast carcinomas: 171881-019-R-J1-PDC and 885512-296-R-J2-PDC; and one ovarian carcinoma: 6556581-035-R-J-PDC were obtained from the NCI PDMR, (https://pdmr.cancer.gov). The established cell lines HSSY-2 synovial sarcoma (RRID:CVCL 8719), SYO-1 synovial sarcoma (RRID:CVCL_7146), MPNST malignant peripheral neural sheath tumor were obtained from the Sloan Kettering Institute. The following established cell lines were purchased from the American Type Culture Collection (ATCC, Manassas, VA), Sor the received from the NCI repository:, PANC-1 pancreatic carcinoma (CRL-1469, RRID:CVCL_0480), OVCAR-5 ovarian carcinoma (RRID:CVCL_1628), OVCAR-8 ovarian carcinoma (RRID:CVCL_1629), , MCF-7 breast carcinoma (CRL-12584, RRID:CVCL_0031), MDA-MB-231 breast carcinoma (CRL-12532, RRID:CVCL_0062), NCI-H1876 small cell lung carcinoma (CRL-5902, RRID:CVCL_1503), NCI-H510A small cell lung carcinoma (HTB-184, RRID:CVCL_1565), NCI-H1417 (CRL-5869, RRID:CVCL_1469), and NCI-H196 small cell lung carcinoma (CRL-5823, RRID:CVCL_1509). Dr. Peter Houghton (Greehey Children's Cancer Research Institute, University of Texas Health Science Center, San Antonio, TX) provided Rh-18 rhabdomyosarcoma (RRID:CVCL_1659). Pooled donor human umbilical vein endothelial cells (HUVEC, Lonza, cat. CC-2519) and human mesenchymal stem cells (hMSC, Lonza, cat. PT-2501) were purchased from Lonza (Walkersville, MD).
Cell Culture. […]

## NC1CCC(NC2CC2c2ccccc2)CC1 (stereo not given) + Cc1c(S(C)(=O)=O)c(-c2cc(F)cc(N3CCN(c4ccc(NS(=O)(=O)c5ccc(NC(CCN6CCC(C(=O)OCCCP(=O)(O)O)CC6)CSc6ccccc6)c(S(=O)(=O)C(F)(F)F)c5)cc4)CC3)c2)c(-c2ccc(Cl)cc2)n1C(C)C
Second compound 0.1 µM
  IC50: > 0.1 µM
Second compound 0.316 µM
  IC50: > 0.1 µM
Second compound 1 µM
  IC50: > 0.1 µM
Second compound 3.16 µM
  IC50: > 0.1 µM
Second compound 10 µM
  IC50: > 0.1 µM
Second compound 0.1 µM, first compound 0.000316 µM
  viability, T/C: 102%
Second compound 0.1 µM, first compound 0.001 µM
  viability, T/C: 98.7%
Second compound 0.1 µM, first compound 0.00316 µM
  viability, T/C: 104%
Second compound 0.1 µM, first compound 0.01 µM
  viability, T/C: 99.1%
Second compound 0.1 µM, first compound 0.0316 µM
  viability, T/C: 92.5%
Second compound 0.1 µM, first compound 0.1 µM
  viability, T/C: 103%
Second compound 0.316 µM, first compound 0.000316 µM
  viability, T/C: 104%
Second compound 0.316 µM, first compound 0.001 µM
  viability, T/C: 103%
Second compound 0.316 µM, first compound 0.00316 µM
  viability, T/C: 106%
Second compound 0.316 µM, first compound 0.01 µM
  viability, T/C: 104%
Second compound 0.316 µM, first compound 0.0316 µM
  viability, T/C: 105%
Second compound 0.316 µM, first compound 0.1 µM
  viability, T/C: 103%
Second compound 1 µM, first compound 0.000316 µM
  viability, T/C: 96.1%
Second compound 1 µM, first compound 0.001 µM
  viability, T/C: 106%
Second compound 1 µM, first compound 0.00316 µM
  viability, T/C: 103%
Second compound 1 µM, first compound 0.01 µM
  viability, T/C: 108%
Second compound 1 µM, first compound 0.0316 µM
  viability, T/C: 105%
Second compound 1 µM, first compound 0.1 µM
  viability, T/C: 102%
Second compound 3.16 µM, first compound 0.000316 µM
  viability, T/C: 93.3%
Second compound 3.16 µM, first compound 0.001 µM
  viability, T/C: 94.2%
Second compound 3.16 µM, first compound 0.00316 µM
  viability, T/C: 99.5%
Second compound 3.16 µM, first compound 0.01 µM
  viability, T/C: 90.8%
Second compound 3.16 µM, first compound 0.0316 µM
  viability, T/C: 93.2%
Second compound 3.16 µM, first compound 0.1 µM
  viability, T/C: 94.7%
Second compound 10 µM, first compound 0.000316 µM
  viability, T/C: 101%
Second compound 10 µM, first compound 0.001 µM
  viability, T/C: 100%
Second compound 10 µM, first compound 0.00316 µM
  viability, T/C: 101%
Second compound 10 µM, first compound 0.01 µM
  viability, T/C: 101%
Second compound 10 µM, first compound 0.0316 µM
  viability, T/C: 96.6%
Second compound 10 µM, first compound 0.1 µM
  viability, T/C: 94.1%
